The record followed here is patent US11078194B2, “Salt form and crystal form serving as FGFR and VEGFR inhibitor compounds, and preparation method therefor” (HARBIN ZHENBAO PHARMACEUTICAL CO., LTD., priority 2017, dated 2021).

Broadly, the IC50 is the midpoint of a concentration-inhibition curve. A higher IC50 goes with a need for much substance.

The target in experiment [1] is T1, FGFR1 (Homo sapiens, UniProt P11362).
T1 construct: purchased Invitrogen PV4105
The experiment is described as follows: Z'-LYTE Detection Kinase Assay, in vitro enzyme activity test. Type of experiment: biochemical. The settings on record: 0.6 nM FGFR1, 10 μm ATP, 23° C., 60 minutes. How it is done:
The enzyme activity was detected by Z′-LYTE™ Detection Kinase Assay, and the IC50 value of the compound was used as an indicator to evaluate the inhibitory effect of the compound against FGFR1.
FGFR1 (Invitrogen #PV4105)
Reaction buffer solution: 50 mM Hepes (pH 7.5), 10 mM MgCl2, 1 mM EGTA, 0.01% Brij-35, 1 mM DTT, 2 mM MnCl2;
0.6 nM FGFR1, 2 μm Tyr^4 peptide and 10 μm ATP in reaction buffer solution (50 mM Hepes, pH 7.5, 10 mM MgCl2, 0.01% BRU-35, 1 mM EGTA, 4 mM MnCl2, 2 mM DTT).
a. Diluting the compound with DMSO to 10 mM, 3-fold dilution, 11 gradients, two duplicate wells;
b. Transferring compound diluted with a ratio of 1:25 to the middle plate at Bravo Automatic Liquid Station. Then transferring 2.5 uL to the reaction plate to ensure the final DMSO concentration to be 1%;
c. Transferring 5 μL enzyme/substrate buffer to each well;
d. Adding ATP solution to each well sequentially with Multidrop liquid workstation;
e. Centrifuging at 1000 rpm for 1 minute;
f. Placing the reaction plate in a 23° C. incubator, and allowing to react for 60 minutes.
a. Preparing a mixture of Development regent B and Development Buffer with a ratio of 1:128;
b. Adding 5 uL to each well and centrifuging at 1000 rpm for 1 minute;
c. Placing the reaction plate into an incubator (23° C.) for 90 minutes after centrifugation, taking it out, and reading it in the Envision (Perkin Elmer) plate reader […]

Experiment [2] concerns FGFR1/2 Highly Expressed Patient-derived Liver Tumor Transplantation Model. The experiment is described as follows: Tumor growth inhibition (TGI) analysis. Type of experiment: in vivo, mice. The note with it: 5 mg/kg, BID. As for the experimental part:
The evolutionary growth potential of tumors was evaluated by the relationship between tumor volume and time. The long axis (L) and short axis (W) of the subcutaneous tumor were measured twice a week by the caliper and the tumor volume (TV) was calculated by the formula ((L×W^2)/2). TGI was calculated from the difference between the median tumor volume in the solvent group mice and the median tumor volume in the drug group mice, expressed as a percentage counting for the median tumor volume in the solvent control group, calculated by the following formula: % TGI=((median tumor volume (control)−median tumor volume (dosing group))/median tumor volume (control group))×100
The original statistical analysis was done by repeating the analysis of variance, followed by post-hoc Scheffe's test method for multiple comparisons, with solvent alone (0.5% methylcellulose+0.2% Tween in water) as negative control.

T1 sequence (P11362 22-822): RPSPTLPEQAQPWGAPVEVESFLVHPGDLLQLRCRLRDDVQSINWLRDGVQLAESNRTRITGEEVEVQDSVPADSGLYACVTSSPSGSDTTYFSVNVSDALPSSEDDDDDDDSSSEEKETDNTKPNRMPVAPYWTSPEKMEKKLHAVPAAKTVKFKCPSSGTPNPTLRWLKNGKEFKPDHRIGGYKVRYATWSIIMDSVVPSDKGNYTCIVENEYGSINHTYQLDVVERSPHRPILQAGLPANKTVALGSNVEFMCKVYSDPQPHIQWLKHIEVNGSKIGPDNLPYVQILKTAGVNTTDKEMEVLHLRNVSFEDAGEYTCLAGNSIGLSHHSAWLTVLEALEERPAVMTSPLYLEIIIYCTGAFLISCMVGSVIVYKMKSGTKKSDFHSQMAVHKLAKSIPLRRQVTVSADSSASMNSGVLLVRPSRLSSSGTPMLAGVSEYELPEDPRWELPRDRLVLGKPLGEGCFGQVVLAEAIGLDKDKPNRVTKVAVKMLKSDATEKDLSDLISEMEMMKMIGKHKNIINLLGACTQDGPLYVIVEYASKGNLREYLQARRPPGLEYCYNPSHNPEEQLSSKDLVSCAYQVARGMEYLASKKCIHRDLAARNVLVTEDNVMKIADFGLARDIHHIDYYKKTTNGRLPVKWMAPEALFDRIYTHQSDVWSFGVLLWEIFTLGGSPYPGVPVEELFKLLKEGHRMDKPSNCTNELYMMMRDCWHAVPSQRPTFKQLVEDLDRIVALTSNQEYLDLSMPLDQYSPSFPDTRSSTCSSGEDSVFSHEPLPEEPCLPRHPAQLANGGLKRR

In turn, `C[C@@H](Oc1ccc2[nH]nc(/C=C(\F)c3ccc(CNC4CCOCC4)nc3)c2c1)c1c(Cl)cncc1Cl` [Embodiment 1] registered an IC50 in experiment [1] not above 10 nM. For the same compound, in experiment [2], the “TGI % (last administration)” value was 85%.
